# Test results: publication PMC3608462 (Biochemistry, 2011)
# Residues, ends and D or L forms follow the SMILES beside them.
# Legend:
# CPAF = CPAF (Chlamydia trachomatis serovar D, UniProt O84866); type: biochemical
# [1] = test system: C. trachomatis LGV-L2 434-infected HeLa cells; settings: C. trachomatis LGV-L2 434-infected HeLa cells treated with lactacystin; cited from earlier work
# Chain of CPAF (O84866 276-601): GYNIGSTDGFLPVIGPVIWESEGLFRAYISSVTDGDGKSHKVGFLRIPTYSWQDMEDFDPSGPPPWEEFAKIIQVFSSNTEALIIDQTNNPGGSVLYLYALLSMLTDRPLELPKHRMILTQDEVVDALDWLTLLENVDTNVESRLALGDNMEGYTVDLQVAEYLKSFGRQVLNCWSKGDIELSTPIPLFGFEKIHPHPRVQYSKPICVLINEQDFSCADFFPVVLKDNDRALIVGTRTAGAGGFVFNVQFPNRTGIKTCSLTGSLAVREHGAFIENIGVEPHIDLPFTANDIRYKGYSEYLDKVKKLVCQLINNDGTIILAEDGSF
# Chain of CPAF (O84866 1-234): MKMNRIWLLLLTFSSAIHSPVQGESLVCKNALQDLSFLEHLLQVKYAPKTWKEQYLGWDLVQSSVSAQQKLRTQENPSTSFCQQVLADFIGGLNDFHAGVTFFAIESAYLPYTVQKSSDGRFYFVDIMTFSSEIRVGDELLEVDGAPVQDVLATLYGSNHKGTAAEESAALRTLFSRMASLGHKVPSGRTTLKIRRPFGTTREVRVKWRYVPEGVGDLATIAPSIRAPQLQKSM
compound,measurement,setting,value
CSCC[C@H](NC(=O)[C@@H]1CCCN1C(=O)[C@H](CO)NC(=O)[C@H](Cc1ccc(O)cc1)NC(=O)[C@H](Cc1ccccc1)NC(=O)[C@H](CC(C)C)NC(=O)[C@@H](N)CO)C(=O)N[C@H](C(=O)N1CCC[C@H]1C(=O)N[C@@H](Cc1c[nH]cn1)C(=O)N[C@@H](Cc1ccccc1)C(=O)N[C@@H](Cc1c[nH]c2ccccc12)C(=O)N[C@@H](C)C(=O)N[C@@H](CCC(=O)O)C(=O)N[C@@H](CC(C)C)C(=O)N[C@@H](CCCNC(=N)N)C(=O)N[C@@H](CC(N)=O)C(=O)N[C@@H](Cc1c[nH]cn1)C(=O)N[C@@H](Cc1ccc(O)cc1)C(=O)N[C@@H](C)C(=O)N[C@H](C(=O)N[C@@H](CO)C(=O)NCC(=O)N[C@@H](CC(C)C)C(=O)N[C@@H](CCCCN)C(=O)N[C@@H](CCCNC(=N)N)C(=O)N[C@@H](CCCNC(=N)N)C(=O)N[C@@H](CCCNC(=N)N)C(=O)N[C@@H](CCCNC(=N)N)C(=O)N[C@@H](CCCNC(=N)N)C(=O)N[C@@H](CCCNC(=N)N)C(=O)N[C@@H](CCCNC(=N)N)C(=O)N[C@@H](CCCNC(=N)N)C(=O)N[C@@H](CCCNC(=N)N)C(N)=O)[C@@H](C)O)C(C)C [peptide 4] (H-SLFYSPMVPHFWAELRNHYATSGLKRRRRRRRRR-NH2),potency relative to inhibitor 3 (fold better),CPAF; ratio of CPAF IC50 values,~30 fold
same,potency relative to lactacystin (fold more potent),CPAF; ratio of CPAF IC50 values,~200 fold
CSCC[C@H](NC(=O)[C@@H]1CCCN1C(=O)[C@H](CO)NC(=O)[C@H](Cc1ccc(O)cc1)NC(=O)[C@H](Cc1ccccc1)NC(=O)[C@H](CC(C)C)NC(=O)[C@@H](N)CO)C(=O)N[C@H](C(=O)N1CCC[C@H]1C(=O)N[C@@H](Cc1c[nH]cn1)C(=O)N[C@@H](Cc1ccccc1)C(=O)N[C@@H](Cc1c[nH]c2ccccc12)C(=O)N[C@@H](C)C(=O)N[C@@H](CCC(=O)O)C(=O)N[C@@H](CC(C)C)C(=O)N[C@@H](CCCNC(=N)N)C(=O)N[C@@H](CC(N)=O)C(=O)N[C@@H](Cc1c[nH]cn1)C(=O)N[C@@H](Cc1ccc(O)cc1)C(=O)N[C@@H](C)C(=O)N[C@H](C(=O)N[C@@H](CO)C(=O)NCC(=O)N[C@@H](CC(C)C)C(=O)N[C@@H](CCCCN)C(N)=O)[C@@H](C)O)C(C)C [peptide 3] (H-SLFYSPMVPHFWAELRNHYATSGLK-NH2),potency relative to lactacystin (fold more potent),CPAF; ratio of CPAF IC50 values,6 fold
CC(=O)N[C@@H](CSC(=O)[C@]1([C@@H](O)C(C)C)NC(=O)[C@H](C)[C@@H]1O)C(=O)O [lactacystin],effect on vimentin in infected HeLa cells,[1],fiber oligermerization of vimentin
H-NFALSHFRLPLSTYKEMPYVSHWAGRRRRRRRRR-NH2 [peptide 5],CPAF inhibitory activity in vitro,CPAF; in vitro,no CPAF inhibitory activity
